Test results reported in US9487529B2, “Macrocyclic compounds as ALK, FAK and JAK2 inhibitors” (Cephalon, Inc., priority 2011, dated 2016).
Where two headings read alike, the source gives them in different places.

Tests used:
[1] = from C=Cc1ccc(N(C)S(C)(=O)=O)c(Nc2nc(Nc3cc(Br)c(N4CCN(C)CC4)cc3OC)ncc2Cl)c1; cc_pd bond; Pd(OAc)2 / tri-o-tolylphosphine, Et3N; CH3CN; 46.7 mM; 120.0 °C; 0.25 h
[2] = biological target: T1, human insulin receptor cytoplasmic domain (βIRCD) (Homo sapiens, UniProt P06213); assay: Insulin Receptor Kinase Assay (TRF); type: biochemical; details: 20 μM ATP, read-out: IR IC50
T1 construct: human insulin receptor cytoplasmic domain (βIRCD); host or cells: baculovirus expression system
T1 sequence (P06213 980-1382 limits assumed): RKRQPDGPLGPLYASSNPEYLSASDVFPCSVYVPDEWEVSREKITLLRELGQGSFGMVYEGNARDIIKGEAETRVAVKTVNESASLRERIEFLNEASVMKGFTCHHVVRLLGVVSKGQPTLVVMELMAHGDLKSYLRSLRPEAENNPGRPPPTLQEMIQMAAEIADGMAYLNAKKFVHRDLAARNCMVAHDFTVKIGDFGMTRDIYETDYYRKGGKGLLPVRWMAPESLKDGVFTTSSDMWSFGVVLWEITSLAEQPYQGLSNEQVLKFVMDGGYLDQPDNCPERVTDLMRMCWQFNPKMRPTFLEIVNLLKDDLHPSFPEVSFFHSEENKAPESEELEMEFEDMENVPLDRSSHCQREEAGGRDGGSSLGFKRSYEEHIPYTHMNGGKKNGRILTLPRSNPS
Experimental: Example compounds were tested for their ability to inhibit the kinase activity of baculovirus-expressed human insulin receptor cytoplasmic domain (βIRCD) using the TRF assay as described above for ALK. Phosphorylation of the substrate, recombinant GST-PLC-γ, was detected with a europium-labeled anti-phosphotyrosine antibody and measured by TRF. Each 96-well plate (Greiner#655074) was coated with 100 μL/well of 20 μg/mL substrate solution in TBS. The IR assay mixture (total volume=100 μL/well) consisting of 20 mM HEPES (pH 7.2), 20 μM ATP, 5 mM MnCl2, 0.1% BSA, and test compound (diluted in DMSO; 2.5% DMSO final in assay) was added to the assay plates. Enzyme (20 ng/mL βIRCD) was added and the reaction was allowed to proceed at room temperature for 20 minutes. Detection of the phosphorylated product was performed by adding 100 μL/well of Eu—N1 labeled PY100 antibody (PerkinElmer#AD0160; diluted 1:10,000 in TBS-T containing 0.25% BSA). Incubation at 37° C. for 1 hour was followed by addition of 50 μL enhancement solution (Wallace#1244-105). Plates were agitated for 10 minutes and the fluorescence was measured using the PerkinElmer EnVision™ 2102 or 2104 multi-label plate reader.
(§1) Data analysis was performed using ActivityBase (IDBS, Guilford, UK). IC50 values were calculated by plotting percent inhibition versus log10 of the concentration of compound and fitting to the nonlinear regression sigmoidal dose-response (variable slope) equation in XLFit (IDBS, Guilford, UK).

recombinant human FAK = biological target: T2, recombinant human FAK (Homo sapiens, UniProt Q05397); assay: FAK Enzyme Assay (TRF detection); type: biochemical; details: 10 μM ATP
T2 construct: purchased Invitrogen PV3832; host or cells: baculovirus expression system
T2 sequence (Q05397 whole entry): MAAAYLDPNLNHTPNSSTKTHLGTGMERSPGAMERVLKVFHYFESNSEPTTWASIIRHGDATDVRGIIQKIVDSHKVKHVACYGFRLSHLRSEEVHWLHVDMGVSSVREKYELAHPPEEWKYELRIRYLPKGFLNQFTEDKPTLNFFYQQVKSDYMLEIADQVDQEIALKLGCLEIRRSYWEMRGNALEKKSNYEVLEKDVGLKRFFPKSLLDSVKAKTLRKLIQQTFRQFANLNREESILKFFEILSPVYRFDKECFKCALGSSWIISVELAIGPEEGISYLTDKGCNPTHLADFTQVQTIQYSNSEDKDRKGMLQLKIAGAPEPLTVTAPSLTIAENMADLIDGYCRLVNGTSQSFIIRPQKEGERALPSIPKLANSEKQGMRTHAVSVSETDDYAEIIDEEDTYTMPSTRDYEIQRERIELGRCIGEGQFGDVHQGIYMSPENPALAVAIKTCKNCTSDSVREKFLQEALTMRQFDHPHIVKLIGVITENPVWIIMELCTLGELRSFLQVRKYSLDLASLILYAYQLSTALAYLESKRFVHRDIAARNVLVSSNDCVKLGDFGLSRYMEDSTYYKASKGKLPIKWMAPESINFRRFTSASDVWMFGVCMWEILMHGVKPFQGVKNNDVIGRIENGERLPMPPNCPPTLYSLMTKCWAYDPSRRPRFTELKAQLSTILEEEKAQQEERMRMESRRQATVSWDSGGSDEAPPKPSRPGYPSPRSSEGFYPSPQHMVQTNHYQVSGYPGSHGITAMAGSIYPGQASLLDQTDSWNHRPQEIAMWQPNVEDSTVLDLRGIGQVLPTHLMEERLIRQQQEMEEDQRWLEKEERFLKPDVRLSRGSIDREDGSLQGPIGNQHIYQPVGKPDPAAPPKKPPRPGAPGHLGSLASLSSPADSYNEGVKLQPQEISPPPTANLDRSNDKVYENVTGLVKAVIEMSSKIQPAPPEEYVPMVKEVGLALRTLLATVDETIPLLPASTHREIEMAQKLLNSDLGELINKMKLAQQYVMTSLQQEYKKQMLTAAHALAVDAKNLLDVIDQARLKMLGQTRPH
Experimental: Example compounds were tested for their ability to inhibit the kinase activity of baculovirus-expressed recombinant human FAK using the TRF detection system as described above for JAK2. IC50 runs were performed in 96-well Costar high binding plates (#3922). The plates were coated first with 100 μL/well of 10 μg/mL neutravidin in TBS at 37° C. for 2 h, followed by 100 μL/well of 1 μg/mL 15-mer peptide substrate (biotinyl-amino-hexanoyl-EQEDEPEGDYFEWLE-amide) at 37° C. for another hour. The FAK assay mixture (total volume=100 μL/well) consisting of 20 mM HEPES, pH 7.2, 10 μM ATP, 5 mM MgCl2, 0.5 mM DTT, 0.1% BSA, and test compound (diluted in DMSO; 2.5% DMSO final in assay) was then added to the assay plate. Enzyme (10 ng/mL FAK, Invitrogen #PV3832) was added and the reaction was allowed to proceed at room temperature for 30 minutes. Detection of the phosphorylated product was performed by adding 100 μL/well of Eu—N1 labeled PY100 antibody (diluted 1:75000 in antibody dilution buffer). Samples were incubated at room temperature for 1 hour, followed by addition of 100 μL enhancement solution. Plates were agitated for 10 minutes and fluorescence of the resulting solution measured using the PerkinElmer EnVision™ 2102 (or 2104) multi-label plate reader.
as §1

[3] = biological target: T3, baculovirus-expressed JAK2 (Homo sapiens, UniProt O60674); assay: JAK2 Kinase Assay (TRF detection); type: biochemical; details: 0.2 μM ATP; average of two or more determinations; class symbols
T3 construct: host or cells: baculovirus expression system
T3 sequence (O60674 whole entry): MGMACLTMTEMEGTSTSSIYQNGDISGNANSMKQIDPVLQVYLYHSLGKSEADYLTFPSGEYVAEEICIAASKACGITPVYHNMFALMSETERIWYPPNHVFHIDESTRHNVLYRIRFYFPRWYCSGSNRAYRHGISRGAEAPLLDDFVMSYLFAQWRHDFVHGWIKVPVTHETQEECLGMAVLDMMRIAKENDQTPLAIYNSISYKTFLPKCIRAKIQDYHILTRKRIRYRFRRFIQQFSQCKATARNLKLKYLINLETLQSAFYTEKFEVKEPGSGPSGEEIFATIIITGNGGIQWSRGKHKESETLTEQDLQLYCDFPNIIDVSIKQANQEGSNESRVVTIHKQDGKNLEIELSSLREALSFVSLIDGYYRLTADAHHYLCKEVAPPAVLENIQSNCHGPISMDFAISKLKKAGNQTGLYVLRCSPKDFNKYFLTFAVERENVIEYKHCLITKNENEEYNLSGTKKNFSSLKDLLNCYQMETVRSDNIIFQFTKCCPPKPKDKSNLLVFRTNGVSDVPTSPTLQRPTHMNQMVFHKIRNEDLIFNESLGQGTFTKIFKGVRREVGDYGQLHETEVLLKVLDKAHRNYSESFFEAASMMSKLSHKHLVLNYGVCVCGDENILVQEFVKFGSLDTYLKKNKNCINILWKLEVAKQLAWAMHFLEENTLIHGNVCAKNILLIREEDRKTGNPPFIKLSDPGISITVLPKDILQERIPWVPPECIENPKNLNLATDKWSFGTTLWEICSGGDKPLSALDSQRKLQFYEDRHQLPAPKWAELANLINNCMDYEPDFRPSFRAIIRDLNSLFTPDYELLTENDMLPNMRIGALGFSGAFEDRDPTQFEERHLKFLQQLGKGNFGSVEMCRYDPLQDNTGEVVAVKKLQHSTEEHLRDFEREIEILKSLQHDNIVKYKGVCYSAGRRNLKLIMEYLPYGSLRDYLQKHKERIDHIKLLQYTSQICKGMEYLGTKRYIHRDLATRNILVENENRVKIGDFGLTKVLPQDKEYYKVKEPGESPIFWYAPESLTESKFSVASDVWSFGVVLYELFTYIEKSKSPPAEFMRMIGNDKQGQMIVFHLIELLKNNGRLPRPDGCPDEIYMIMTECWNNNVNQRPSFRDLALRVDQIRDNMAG
Experimental: Compounds were tested for their ability to inhibit the kinase activity of baculovirus-expressed JAK2 using the TRF detection system. IC50 runs were conducted in 96-well Costar high binding plates (Corning Costar #3922, Corning, N.Y.). The plates were coated first with 100 μL/well of 10 μg/mL Neutravidin (Pierce #31000, Rockford, Ill.) in TBS at 37° C. for 2 hours, followed by 100 μL/well of 1 μg/mL 15-mer peptide substrate (biotinyl-amino-hexanoyl-EQEDEPEGDYFEWLE-amide, Infinity Biotech Research and Resource, Aston, Pa.) at 37° C. for another hour. The JAK2 assay mixture (total volume=100 μL/well) consisting of 20 mM HEPES, pH 7.2, 0.2 μM ATP, 1 mM MnCl2, 0.1% BSA, and test compound (diluted in DMSO; 2.5% DMSO final in assay) was then added to the assay plate. Enzyme (15 ng/ml JAK2) was added and the reaction was allowed to proceed at room temperature for 20 minutes. Detection of the phosphorylated product was performed by adding 100 μL/well of Eu—N1 labeled PY100 antibody (PerkinElmer Life Sciences #AD0041, Boston, Mass.). Incubation at the room temperature then proceeded for 1 hour, followed by addition of 100 μl enhancement solution (PerkinElmer Life Sciences #1244-105, Boston, Mass.). The plate was gently agitated and after thirty minutes, the fluorescence of the resulting solution was measured using the PerkinElmer EnVision™ 2102 (or 2104) multi-label plate reader.
as §1

[4] = biological target: T4, baculovirus-expressed ALK (Homo sapiens, UniProt Q9UM73); assay: ALK Kinase Assay (ELISA/TRF); type: biochemical; details: 1 μM ATP (Km level); average of two or more determinations; class symbols
T4 construct: host or cells: baculovirus expression system
T4 sequence (Q9UM73 19-1620): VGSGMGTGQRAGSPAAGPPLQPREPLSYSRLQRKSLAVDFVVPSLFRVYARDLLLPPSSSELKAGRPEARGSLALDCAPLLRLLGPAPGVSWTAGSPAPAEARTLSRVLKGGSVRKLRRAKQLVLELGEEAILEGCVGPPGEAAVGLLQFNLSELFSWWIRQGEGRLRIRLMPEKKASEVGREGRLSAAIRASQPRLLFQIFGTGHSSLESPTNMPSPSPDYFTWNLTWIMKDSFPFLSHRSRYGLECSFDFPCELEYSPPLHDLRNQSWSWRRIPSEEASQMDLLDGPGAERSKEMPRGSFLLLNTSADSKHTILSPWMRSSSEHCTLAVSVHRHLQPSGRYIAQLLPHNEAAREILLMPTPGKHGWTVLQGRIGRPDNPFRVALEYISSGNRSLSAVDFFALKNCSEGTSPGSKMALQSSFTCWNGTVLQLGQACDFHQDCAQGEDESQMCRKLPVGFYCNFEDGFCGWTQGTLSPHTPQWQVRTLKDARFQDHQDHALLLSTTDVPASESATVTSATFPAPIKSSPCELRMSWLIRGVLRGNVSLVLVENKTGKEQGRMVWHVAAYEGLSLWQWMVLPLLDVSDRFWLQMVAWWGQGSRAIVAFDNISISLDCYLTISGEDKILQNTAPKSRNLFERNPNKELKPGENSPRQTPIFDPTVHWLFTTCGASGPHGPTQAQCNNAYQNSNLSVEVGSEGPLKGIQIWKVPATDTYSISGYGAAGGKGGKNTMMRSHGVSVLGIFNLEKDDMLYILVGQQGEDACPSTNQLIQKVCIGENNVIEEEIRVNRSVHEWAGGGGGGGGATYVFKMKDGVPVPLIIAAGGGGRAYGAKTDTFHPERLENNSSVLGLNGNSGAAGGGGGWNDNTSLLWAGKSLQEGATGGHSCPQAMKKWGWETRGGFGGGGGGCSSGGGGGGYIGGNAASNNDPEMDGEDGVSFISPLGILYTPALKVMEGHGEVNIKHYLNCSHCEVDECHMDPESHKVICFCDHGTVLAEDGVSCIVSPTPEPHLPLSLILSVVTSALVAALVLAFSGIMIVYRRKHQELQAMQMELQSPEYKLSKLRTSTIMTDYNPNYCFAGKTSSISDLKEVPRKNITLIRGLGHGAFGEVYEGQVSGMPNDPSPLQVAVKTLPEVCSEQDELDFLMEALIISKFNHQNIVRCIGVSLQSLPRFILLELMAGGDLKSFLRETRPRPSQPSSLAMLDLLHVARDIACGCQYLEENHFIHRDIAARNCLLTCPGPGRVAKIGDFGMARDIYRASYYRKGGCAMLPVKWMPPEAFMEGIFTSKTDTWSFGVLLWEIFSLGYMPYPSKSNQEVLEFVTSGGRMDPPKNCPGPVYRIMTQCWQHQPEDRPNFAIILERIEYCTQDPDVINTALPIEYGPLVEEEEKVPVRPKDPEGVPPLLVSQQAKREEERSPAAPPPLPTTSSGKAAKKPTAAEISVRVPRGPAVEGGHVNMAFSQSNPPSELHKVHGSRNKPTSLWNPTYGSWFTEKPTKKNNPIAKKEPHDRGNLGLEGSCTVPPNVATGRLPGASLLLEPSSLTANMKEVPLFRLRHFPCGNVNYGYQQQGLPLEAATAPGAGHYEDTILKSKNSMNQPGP
Experimental: Briefly, each 96-well plate was coated with 100 μL/well of 10 μg/mL substrate (GST-PLC-γ) in Tris-buffered saline (TBS). […] The reaction was initiated by adding enzyme (30 ng/mL ALK) and was allowed to proceed at 37° C. for 15 minutes. Detection of the phosphorylated product was performed by adding 100 μL/well of Eu—N1 labeled PT66 antibody (Perkin Elmer #AD0041). […] Data analysis was performed using ActivityBase (IDBS, Guilford, UK). IC50 values were calculated by plotting percent inhibition versus log10 of the concentration of compound and fitting to the nonlinear regression sigmoidal dose-response (variable slope) equation in XLFit (IDBS, Guilford, UK).

[5] = average of two or more determinations, class symbols

Row | IC50 [2, 5] | IC50 ([2]; given as numeric bound) | IC50 (recombinant human FAK; [5]) | IC50 (recombinant human FAK; given as numeric bound) | melting point | IC50 [3] | IC50 [4] | SMILES | ring closure, yield of all isomers [1]
1 | 1000 to 10000 nM | > 2000 nM | < 10 nM | > 3000 nM | 278 to 280 °C | – | – | COc1cc(N2CCN(C)CC2)c2cc1Nc1ncc(Cl)c(n1)Nc1cc(ccc1N(C)S(C)(=O)=O)/C=C\2 [Example 4, (14Z)-6-Chloro-10-(2-methanesulfonyl-methyl-amino)-17-(4-methylpiperazin-1-yl)-19-methoxy-2,4,8,22-tetraazatetracyclo[14.3.1.1^3,7.1^9,13]docosa-1(20),3(22),4,6,9(21),10,12,14,16,18-decaene] | 72%
2 | – | > 2000 nM | < 10 nM | – | 244 to 246 °C | 1000 to 10000 nM | 10 to 100 nM | COc1cc(C2CCN(C)CC2)c2cc1Nc1ncc(Cl)c(n1)Nc1cc(ccc1N(C)S(C)(=O)=O)/C=C\2 [Example 7, (14Z)-6-Chloro-10-(2-methanesulfonyl-methyl-amino)-17-(1-methyl-piperidin-4-yl)-19-methoxy-2,4,8,22-tetraazatetracyclo[14.3.1.1^3,7.1^9,13]docosa-1(20),3(22),4,6,9(21),10,12,14,16,18-decaene] | –
3 | 10 to 100 nM | – | < 10 nM | – | > 250 °C | < 10 nM | – | CC(C)S(=O)(=O)c1ccc2cc1Nc1nc(ncc1Cl)Nc1ccc(N3CCN(C)CC3)c(c1)CC2 [Example 12, 6-Chloro-10-(propane-2-sulfonyl)-17-(4-methylpiperazin-1-yl)-2,4,8,22-tetraazatetracyclo[14.3.1.1^3,7.1^9,13]docosa-1(20),3(22),4,6,9(21),10,12,16,18-nonaene] | –
4 | 101 to 1000 nM | – | 10 to 100 nM | – | > 250 °C | 10 to 100 nM | 10 to 100 nM | CN1CCN(c2ccc3cc2CCc2ccc(S(C)(=O)=O)c(c2)Nc2nc(ncc2Cl)N3)CC1 [Example 19, 6-Chloro-10-(methanesulfonyl)-17-(4-methylpiperazin-1-yl)-2,4,8,22-tetraazatetracyclo[14.3.1.1^3,7.1^9,13]docosa-1(20),3(22),4,6,9(21),10,12,16,18-nonaene] | –
